SMILES strings stand for the structures.

The source of these data is US8592426B2, “Aryl-benzocycloalkyl amide derivatives” (Hoffmann—La Roche Inc., priority 2011, dated 2013).

In experiment [1] the target is T1, Bradykinin-1 receptor (Homo sapiens (Human), UniProt P46663). Description: Receptor binding assay (B1R Binding Assay), [3H]-Kallidin (Des Arg10, Leu9) displacement. Particulars: membranes from CHO-K1 cells overexpressing Bradykinin-1 receptor; 6 nM radioligand. On the procedure: Binding assays were done with membranes from CHO-K1 cells overexpressing Bradykinin-1 receptor.
To determine non-specific binding 10 μM Lys-(Des-Arg^9)-Bradykinin (Bachem) was added. Membranes were harvested through GF/B (glass fiber filter; PerkinElmer) plates, equilibrated with 0.5% polyethylenimine, air dried at 50° C. for 2 h. Radioactivity was determined by counting in a topcounter (NXT Packard).

Experiment [2] deals with T1, Bradykinin-1 receptor. The experiment is described as follows: Calcium mobilization assay (FLIPR, Fluo-4) in GeneBLAzer Bradykinin (B1)-NFAT-bla CHO-K1 cells. The experiment is classed as cell-based. Particulars: antagonist activity; CHO-K1 cells stably overexpressing the human bradykinin 1 receptor; read-out: Ca mobilization Assay IC50. On the procedure: Calcium Mobilization Assay
GeneBLAzer® Bradykinin (B1)-NFAT-bla CHO-K1 cells (from Invitrogen) stably overexpressing the human bradykinin 1 receptor were cultured in DMEM (high glucose) supplemented with 10% dialysed FBS, 1% NEAA (non essential amino acids) 1% penicillin/streptomycin, 1% G418 and 0.1 mg/ml zeocin.
For the assay cells were grown overnight in 384-well black clear flat bottom polystyrene plates (Costar) at 37° C. at 5% CO2. After washing with DMEM, 20 mM Hepes, 2.5 mM probenecid, 0.1% BSA (DMEM assay buffer) cells were loaded with 4 μM Fluo-4 in the same DMEM assay buffer for 2 hours at 30° C. Excess dye was removed and cells were washed with DMEM assay buffer. 384-well compound plates were prepared with DMEM assay buffer/0.5% DMSO with or without various concentrations of test compounds. Usually compounds were tested for agonist and antagonist activity.
Test compounds were added to the assay plate and agonist activity was monitored as fluorescence for 80 seconds with a FLIPR (488 nm excitation; 510-570 nm emission; Molecular Devices). After 20-30 min. of incubation at 30° C., 20 nM […] (R&D; Roche) was added and fluorescence was monitored again for 80 seconds. Increases in intracellular calcium are reported as maximum fluorescence after agonist exposure minus basal fluorescence before exposure.

T1 sequence (P46663 whole entry): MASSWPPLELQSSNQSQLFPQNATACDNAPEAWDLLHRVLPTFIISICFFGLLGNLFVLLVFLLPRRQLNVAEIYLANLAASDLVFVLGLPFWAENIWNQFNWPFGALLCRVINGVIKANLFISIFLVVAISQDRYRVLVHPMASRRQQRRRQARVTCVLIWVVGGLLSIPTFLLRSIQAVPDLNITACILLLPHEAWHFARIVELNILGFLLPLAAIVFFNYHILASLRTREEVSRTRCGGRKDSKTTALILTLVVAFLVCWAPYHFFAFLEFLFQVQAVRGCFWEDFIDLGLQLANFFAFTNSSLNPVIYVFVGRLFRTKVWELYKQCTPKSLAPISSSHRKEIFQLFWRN

Turning to `Cc1nc(-c2c(F)cc(Cl)cc2-c2cnc3c(c2)CCC3NC(=O)C2(NC(=O)c3ccnnc3)CC2)no1` (single isomer, unassigned) [Example 40, Pyridazine-4-carboxylic acid(1-{(R or S) 3-[5-chloro-3-fluoro-2-(5-methyl-[1,2,4]oxadiazol-3-yl)-phenyl]-6,7-dihydro-5H-[1]pyrindin-7-ylcarbamoyl}-cyclopropyl)-amide], the inhibition constant (Ki) on Bradykinin-1 receptor [1] turned out to be 130 nM. For the same molecule, on Bradykinin-1 receptor [2], the IC50 was determined as 35.2 nM.
For `Cc1nc(-c2c(F)cc(Cl)cc2-c2ccc3c(c2)CCC3(C)NC(=O)C2(NC(=O)C(F)(F)F)CC2)no1` (racemic) [Example 17, 1-(2,2,2-Trifluoro-acetylamino)-cyclopropanecarboxylic acid{(rac)-5-[5-chloro-3-fluoro-2-(5-methyl-[1,2,4]oxadiazol-3-yl)-phenyl]-1-methyl-indan-1-yl}-amide], in that order: 5.9 nM and 0.6 nM.
Turning to `Cn1nnc(-c2c(F)cc(Cl)cc2-c2cnc3c(c2)CCC3NC(=O)C2(NC(=O)c3ccno3)CC2)n1` (racemic) [Example 57, Isoxazole-5-carboxylic acid(1-{(rac)-3-[5-chloro-3-fluoro-2-(2-methyl-2H-tetrazol-5-yl)-phenyl]-6,7-dihydro-5H-[1]pyrindin-7-ylcarbamoyl}-cyclopropyl)-amide], the Ki on Bradykinin-1 receptor [1] was 5.8 nM. Further, the IC50 at Bradykinin-1 receptor [2] came out at 0.4 nM.
Regarding `Cc1nc(-c2c(F)cc(Cl)cc2-c2ccc3c(c2)OCCC3NC(=O)C2(NC(=O)C(F)(F)F)CC2)no1` (racemic) [Example 14, 1-(2,2,2-Trifluoro-acetylamino)-cyclopropanecarboxylic acid{(rac)-7-[5-chloro-3-fluoro-2-(5-methyl-[1,2,4]oxadiazol-3-yl)-phenyl]-chroman-4-yl}-amide], the affinity on Bradykinin-1 receptor [1], expressed as Ki, was 212 nM. Moreover, the concentration for half-maximal inhibition (IC50) on Bradykinin-1 receptor [2] was determined as 24.8 nM.
On the same counts, the results for `COC(=O)c1c(Cl)cccc1-c1ccc2c(c1)CCC2NC(=O)C1(NC(=O)C(F)(F)F)CC1` (racemic) [Example 3, (rac)-2-Chloro-6-(1-{[1-(2,2,2-trifluoro-acetylamino)-cyclopropanecarbonyl]-amino}-indan-5-yl)-benzoic acid methyl ester] are 123 nM and 47.4 nM.
On the same counts, the results for `Cn1nnc(-c2c(F)cc(Cl)cc2-c2ccc3c(c2)SCC3NC(=O)C2(N)CC2)n1` (racemic) [Example 61, 1-Amino-cyclopropanecarboxylic acid{(rac)-6-[5-chloro-3-fluoro-2-(2-methyl-2H-tetrazol-5-yl)-phenyl]-2,3-dihydro-benzo[b]thiophen-3-yl}-amide] are 264 nM and 17.4 nM.
On the same counts, the results for `Cc1cc(C(=O)NC2(C(=O)NC3CCc4cc(-c5cc(Cl)cc(F)c5-c5nnn(C)n5)cnc43)CC2)on1` (racemic) [Example 58, 3-Methyl-isoxazole-5-carboxylic acid(1-{(rac)-3-[5-chloro-3-fluoro-2-(2-methyl-2H-tetrazol-5-yl)-phenyl]-6,7-dihydro-5H-[1]pyrindin-7-ylcarbamoyl}-cyclopropyl)-amide] are 6.3 nM and 0.4 nM.
Regarding `Cc1nc(-c2c(F)cc(Cl)cc2-c2cnc3c(c2)CCC3NC(=O)C2(NC(=O)OC(C)(C)C)CC2)no1` (racemic) [Example 36, (1-{(rac)-3-[5-Chloro-3-fluoro-2-(5-methyl-[1,2,4]oxadiazol-3-yl)-phenyl]-6,7-dihydro-5H-[1]pyrindin-7-ylcarbamoyl}-cyclopropyl)-carbamic acid tert-butyl ester], the affinity on Bradykinin-1 receptor [1], expressed as Ki, was 361 nM. In addition, the IC50 on Bradykinin-1 receptor [2] is 3.6 nM.
On the same counts, the results for `Cc1nc(-c2c(F)cc(Cl)cc2-c2ccc3c(c2)SCC3NC(=O)C2(NC(=O)C(F)(F)F)CC2)no1` (racemic) [Example 21, 1-(2,2,2-Trifluoro-acetylamino)-cyclopropanecarboxylic acid{(rac)-6-[5-chloro-3-fluoro-2-(5-methyl-[1,2,4]oxadiazol-3-yl)-phenyl]-2,3-dihydro-benzo[b]thiophen-3-yl}-amide] are 9.5 nM and 2.3 nM.
For `COC(=O)c1ccccc1-c1ccc2c(c1)CCC2NC(=O)C1(NC(=O)C(F)(F)F)CC1` (racemic) [Example 1, (rac)-2-(1-{[1-(2,2,2-Trifluoro-acetylamino)-cyclopropanecarbonyl]-amino}-indan-5-yl)-benzoic acid methyl ester], in that order: 2170 nM and 2250 nM.
For `O=C(NC1(C(=O)NC2CCc3cc(-c4cc(Cl)cc(Cl)c4OCC(F)F)ccc32)CC1)C(F)(F)F` (racemic) [Example 2, 1-(2,2,2-Trifluoro-acetylamino)-cyclopropanecarboxylic acid (rac)-{5-[3,5-dichloro-2-(2,2-difluoro-ethoxy)-phenyl]-indan-1-yl}-amide], in that order: 146 nM and 76.8 nM.
Regarding `Cn1nnc(-c2c(F)cc(Cl)cc2-c2ccc3c(c2)CC[C@@H]3NC(=O)C2(NC(=O)C(F)(F)F)COC2)n1` [Example 8, 3-(2,2,2-Trifluoro-acetylamino)-oxetane-3-carboxylic acid{(S)-5-[5-chloro-3-fluoro-2-(2-methyl-2H-tetrazol-5-yl)-phenyl]-indan-1-yl}-amide], the Ki on Bradykinin-1 receptor [1] came out at 30.3 nM. Also, the half-maximal inhibitory concentration (IC50) at Bradykinin-1 receptor [2] is 24.4 nM.
For `Cc1nc(-c2c(F)cc(Cl)cc2-c2ccc3c(c2)CCC3NC(=O)C2(NC(=O)C(F)(F)F)CC2)no1` (racemic) [Example 4, 1-(2,2,2-Trifluoro-acetylamino)-cyclopropanecarboxylic acid (rac)-{5-[5-chloro-3-fluoro-2-(5-methyl-[1,2,4]oxadiazol-3-yl)-phenyl]-indan-1-yl}-amide], in that order: 20.2 nM and 2 nM.
For `Cc1nc(-c2c(F)cc(Cl)cc2-c2ccc3c(c2)CC[C@@H]3NC(=O)C2(NC(=O)c3ccnnc3)CC2)no1` [Example 27, Pyridazine-4-carboxylic acid(1-{(S)-5-[5-chloro-3-fluoro-2-(5-methyl-[1,2,4]oxadiazol-3-yl)-phenyl]-indan-1-ylcarbamoyl}-cyclopropyl)-amide], in that order: 3.6 nM and 0.4 nM.
For `Cc1nc(-c2c(F)cc(Cl)cc2-c2ccc3c(c2)CC[C@@H]3NC(=O)C2(NC(=O)C(F)(F)F)CC2)no1` [Example 5, 1-(2,2,2-Trifluoro-acetylamino)-cyclopropanecarboxylic acid{(S)-5-[5-chloro-3-fluoro-2-(5-methyl-[1,2,4]oxadiazol-3-yl)-phenyl]-indan-1-yl}-amide], on Bradykinin-1 receptor [1], affinity was put at a Ki of 6.2 nM. Moreover, the IC50 at Bradykinin-1 receptor [2] came to 0.6 nM.
As to `COc1cc(C(=O)NC2(C(=O)N[C@H]3CCc4cc(-c5cc(Cl)cc(F)c5-c5noc(C)n5)ccc43)CC2)on1` [Example 30, 3-Methoxy-isoxazole-5-carboxylic acid(1-{(S)-5-[5-chloro-3-fluoro-2-(5-methyl-[1,2,4]oxadiazol-3-yl)-phenyl]-indan-1-ylcarbamoyl}-cyclopropyl)-amide], the inhibitory constant (Ki) on Bradykinin-1 receptor [1] was determined as 3.9 nM. Further, at Bradykinin-1 receptor [2], the 50% inhibitory concentration (IC50) is 0.1 nM.
For `Cn1nnc(-c2c(F)cc(Cl)cc2-c2ccc3c(c2)CCC3(C)NC(=O)C2(NC(=O)C(F)(F)F)CC2)n1` (racemic) [Example 18, 1-(2,2,2-Trifluoro-acetylamino)-cyclopropanecarboxylic acid{(rac)-5-[5-chloro-3-fluoro-2-(2-methyl-2H-tetrazol-5-yl)-phenyl]-1-methyl-indan-1-yl}-amide], in that order: 6.7 nM and 0.5 nM.
